Columns and labels:
[1] = tested on: brains, heart, liver, muscle, and DRG of the NHPs; assay: Maturation of TTM-001 and TTM-002 capsids, NGS enrichment in NHP tissues; type: in vivo; settings: relative to AAV9 control
Outline: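 Variants carry mutations within and flanking the loop IV peptide insert: positions 450–466 were triplet-randomized, while positions 449–466 received low-frequency point mutations. The combined pool went into two NHPs, and each peptide was scored by NGS enrichment ratio against AAV9.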

brain = assay: Matured TTM-001 and TTM-002 variants, NGS enrichment in mouse brain; type: in vivo, mice; settings: relative to AAV9 control
[2] = NGS fold-enrichment of matured AAV capsid variants, NHP brain, RNA
[3] = NGS fold-enrichment, DRG of NHPs
[4] = NGS fold-enrichment, RNA, brain of NHPs
[5] = NGS fold-enrichment, heart of NHPs
[6] = NGS fold-enrichment, liver DNA of NHPs
[7] = NGS fold-enrichment, liver RNA of NHPs
[8] = NGS fold-enrichment, muscle of NHPs
[9] = NGS fold-enrichment, brain of mice
[10] = NGS fold-enrichment of RNA, NHP brain
[11] = NGS fold-enrichment, NHP liver DNA
[12] = NGS fold-enrichment, NHP liver RNA
[13] = NGS fold-enrichment, NHP muscle
[14] = NGS fold-enrichment, mouse brain

Sequence	Fold Enrichment relative to AAV9, Brain (NHP) [1, 2]	Fold Enrichment relative to AAV9, DRG (NHP) ([1]; NHP DRG)	Fold Enrichment relative to AAV9, Heart (NHP) ([1]; NHP heart)	Fold Enrichment relative to AAV9, Liver DNA (NHP) ([1]; NHP liver, DNA)	Fold Enrichment relative to AAV9, Liver RNA (NHP) ([1]; NHP liver, RNA)	Fold Enrichment relative to AAV9, Muscle (NHP) ([1]; NHP muscle)	Fold Enrichment relative to AAV9, Brain (Mouse) (brain; mouse brain)	Fold Enrichment relative to AAV9, DRG (NHP) [1, 3]	Fold Enrichment relative to AAV9, Brain (NHP) [1, 4]	Fold Enrichment relative to AAV9, Heart (NHP) [1, 5]	Fold Enrichment relative to AAV9, Liver DNA (NHP) [1, 6]	Fold Enrichment relative to AAV9, Liver RNA (NHP) [1, 7]	Fold Enrichment relative to AAV9, Muscle (NHP) [1, 8]	Fold Enrichment relative to AAV9, Brain (Mouse) (brain; [9])	further results
KTINGSGSPHSKAQDRQS	55.137 fold	1.146 fold	0.016 fold	0.086 fold	0.644 fold	0.106 fold	55.701 fold	–	–	–	–	–	–	–	–
KTINGSGSPHSKAQERPT	–	–	–	–	–	–	–	0.000 fold	63.460 fold	0.011 fold	0.173 fold	0.810 fold	0.000 fold	57.506 fold	–
KTINGSGSPHSKAQERST	58.021 fold	0.000 fold	0.011 fold	0.409 fold	0.829 fold	0.005 fold	87.656 fold	–	–	–	–	–	–	–	–
KTINGSGSPHSKAQFMCT	55.916 fold	0.000 fold	0.000 fold	0.448 fold	0.078 fold	0.000 fold	81.959 fold	–	–	–	–	–	–	–	–
KTINGSGSPHSKAQFPST	–	–	–	–	–	–	–	0.000 fold	75.677 fold	0.004 fold	0.127 fold	0.849 fold	0.000 fold	119.712 fold	Fold Enrichment relative to AAV9, Brain (NHP) [1, 10]: 75.677 fold; Fold Enrichment relative to AAV9, DRG (NHP) ([1]; NGS fold-enrichment, NHP DRG): 0.000 fold; Fold Enrichment relative to AAV9, Heart (NHP) ([1]; NGS fold-enrichment, NHP heart): 0.004 fold; Fold Enrichment relative to AAV9, Liver DNA (NHP) [1, 11]: 0.127 fold; Fold Enrichment relative to AAV9, Liver RNA (NHP) [1, 12]: 0.849 fold; Fold Enrichment relative to AAV9, Muscle (NHP) [1, 13]: 0.000 fold; Fold Enrichment relative to AAV9, Brain (Mouse) (brain; [14]): 119.712 fold
KTINGSGSPHSKAQGAIT	57.627 fold	0.000 fold	0.000 fold	0.161 fold	0.594 fold	0.000 fold	95.696 fold	–	–	–	–	–	–	–	–
KTINGSGSPHSKAQGHHT	56.559 fold	0.000 fold	0.000 fold	0.117 fold	0.632 fold	0.000 fold	71.050 fold	–	–	–	–	–	–	–	–
KTINGSGSPHSKAQGILT	58.418 fold	0.000 fold	0.005 fold	0.192 fold	0.569 fold	0.010 fold	102.631 fold	–	–	–	–	–	–	–	–
KTINGSGSPHSKAQGIRT	–	–	–	–	–	–	–	0.041 fold	61.952 fold	0.000 fold	0.502 fold	0.897 fold	0.012 fold	155.013 fold	–
KTINGSGSPHSKAQGQQA	–	–	–	–	–	–	–	0.000 fold	64.128 fold	0.185 fold	0.195 fold	0.063 fold	0.000 fold	64.116 fold	–
KTINGSGSPHSKAQGSLT	54.717 fold	0.000 fold	0.006 fold	0.298 fold	0.480 fold	0.013 fold	142.786 fold	–	–	–	–	–	–	–	–
KTINGSGSPHSKAQHGLT	55.999 fold	0.000 fold	0.000 fold	0.244 fold	1.913 fold	0.101 fold	117.191 fold	–	–	–	–	–	–	–	–
KTINGSGSPHSKAQHPST	–	–	–	–	–	–	–	0.000 fold	62.255 fold	0.044 fold	0.301 fold	1.345 fold	0.000 fold	101.103 fold	–
KTINGSGSPHSKAQHRIT	–	–	–	–	–	–	–	0.105 fold	76.849 fold	0.499 fold	0.214 fold	1.424 fold	0.170 fold	127.000 fold	Fold Enrichment relative to AAV9, Brain (NHP) [1, 10]: 76.849 fold; Fold Enrichment relative to AAV9, DRG (NHP) ([1]; NGS fold-enrichment, NHP DRG): 0.105 fold; Fold Enrichment relative to AAV9, Heart (NHP) ([1]; NGS fold-enrichment, NHP heart): 0.499 fold; Fold Enrichment relative to AAV9, Liver DNA (NHP) [1, 11]: 0.214 fold; Fold Enrichment relative to AAV9, Liver RNA (NHP) [1, 12]: 1.424 fold; Fold Enrichment relative to AAV9, Muscle (NHP) [1, 13]: 0.170 fold; Fold Enrichment relative to AAV9, Brain (Mouse) (brain; [14]): 127.000 fold
KTINGSGSPHSKAQIGHT	57.769 fold	0.024 fold	0.000 fold	0.154 fold	0.281 fold	0.000 fold	99.262 fold	–	–	–	–	–	–	–	–
KTINGSGSPHSKAQIGMT	59.013 fold	0.081 fold	106.528 fold	0.248 fold	1.003 fold	0.000 fold	134.585 fold	–	–	–	–	–	–	–	–
KTINGSGSPHSKAQIPPT	–	–	–	–	–	–	–	0.000 fold	61.258 fold	0.000 fold	0.115 fold	0.758 fold	0.000 fold	87.661 fold	–
KTINGSGSPHSKAQKFET	–	–	–	–	–	–	–	0.000 fold	75.788 fold	0.000 fold	0.093 fold	0.108 fold	0.028 fold	65.588 fold	Fold Enrichment relative to AAV9, Brain (NHP) [1, 10]: 75.788 fold; Fold Enrichment relative to AAV9, DRG (NHP) ([1]; NGS fold-enrichment, NHP DRG): 0.000 fold; Fold Enrichment relative to AAV9, Heart (NHP) ([1]; NGS fold-enrichment, NHP heart): 0.000 fold; Fold Enrichment relative to AAV9, Liver DNA (NHP) [1, 11]: 0.093 fold; Fold Enrichment relative to AAV9, Liver RNA (NHP) [1, 12]: 0.108 fold; Fold Enrichment relative to AAV9, Muscle (NHP) [1, 13]: 0.028 fold; Fold Enrichment relative to AAV9, Brain (Mouse) (brain; [14]): 65.588 fold
KTINGSGSPHSKAQKIST	50.285 fold	0.000 fold	0.000 fold	0.302 fold	0.108 fold	0.088 fold	51.115 fold	–	–	–	–	–	–	–	–
KTINGSGSPHSKAQKLNT	–	–	–	–	–	–	–	0.073 fold	67.782 fold	0.092 fold	0.201 fold	1.232 fold	0.000 fold	68.637 fold	–
KTINGSGSPHSKAQKQQD	–	–	–	–	–	–	–	0.000 fold	70.116 fold	0.024 fold	0.083 fold	0.064 fold	0.000 fold	110.196 fold	–

— patent publication US20260250318A1, “COMPOSITIONS AND METHODS FOR CROSSING THE BLOOD BRAIN BARRIER” (VOYAGER THERAPEUTICS, INC., priority 2022, published 2026)
